From US11752141B2, “Pharmaceutical compositions and methods utilizing neostigmine and an NK-1 antagonist for treating myasthenia gravis” (priority 2017, dated 2023)

System: human subjects
Assay: Phase I single-blind, placebo-controlled study of pyridostigmine bromide with or without aprepitant
Format: in vivo
Conditions: single oral dose of aprepitant (up to 125 mg) co-administered with first intolerable dose (FID) of oral pyridostigmine bromide; healthy volunteers; follow-up up to 8 hours
Method: The ability of the NK1-antagonists for preventing the adverse effects of pyridostigmine bromide in humans is tested.
A Phase I study is conducted in human subjects receiving a single oral dose of pyridostigmine bromide with or without a single oral dose of aprepitant, as a representative NK1-antagonist. The study was a single center, single-blind, placebo-controlled study.
To be enrolled in the study, participants are to meet the following inclusion/ex elusion criteria:
• 1. Male or female volunteers between the ages of 18 and 60 years inclusive are required to be in good health, to refrain from consuming xanthine, quinine and caffeine containing beverages, and to refrain from prolonged intensive physical exercise during the study conduct. • 2. […] Subjects had to be in good health according to their medical history including personal and family psychiatric history, physical examination, ECG, vital signs, and laboratory tests. […] Subjects had to be able to swallow multiple pills simultaneously. Key Exclusion Criteria • 1. Any clinically relevant acute or chronic disease which could interfere with the subjects' safety during the trial, expose them to undue risk, or interfere with the study objectives. • 2. History or presence of gastrointestinal, hepatic, or renal disease or other condition known to interfere with the absorption, distribution, metabolism or excretion of drugs. • 3. […]

**Q.** How did the “occurrence of gastro-intestinal AEs with pyridostigmine” value turn out when C[C@@H](O[C@H]1OCCN(Cc2nc(=O)[nH][nH]2)[C@H]1c1ccc(F)cc1)c1cc(C(F)(F)F)cc(C(F)(F)F)c1 [aprepitant, 5-[[(2R,3S)-2-[(1R)-1-[3,5-bis(trifluoromethyl)phenyl]ethoxy]-3-(4-fluorophenyl)-4-morpholinyl]methyl]-1,2-dihydro-3H-1,2,4-triazol-3-one] was run?
**A.** prevents or attenuates
